In patent publication US20250248391A1, “VIABLE VITREOUS GRAFTS FOR PRESERVATION AND RECOVER OF TISSUE FOR TRANSPLANT AND CLINICAL USE” (Clemson University Research Foundation, priority 2024, published 2025):
Read-outs that look alike come from different tables or passages of the source.

Assays:
[1] = 6.5M, porcine articular cartilage, ref [5], cited from earlier work
[2] = articular cartilage of calves, 22° C.; 3.1M Me2SO, 3.1M PG, 2.2M formamide; ref [4]; cited from earlier work
whole TMJ discs [3] = test: Fluorescence live/dead viability of whole TMJ discs; format: cell-based, Yorkshire pigs; conditions: for Viability (%): Slow-frozen (Me2SO 10% v/v)
Experimental: (§1) Tissue viability was assessed by fluorescence live/dead staining. Each cylindrical specimen was longitudinally divided into two sections for imaging along the sagittal plane. To comprehensively assess the whole meniscus, both transverse and sagittal sections were prepared. In the case of transverse sections, a 300 μm thick slice of the whole meniscus was obtained using a vibrating blade microtome due to its larger surface area. For sagittal sections, approximately 1-2 mm thick slices were manually cut from corresponding regions. For the TMJ disc samples, strips measuring 6 mm in width, encompassing the anterior, central, posterior, medial, and lateral regions, were manually excised from the whole disc using a scalpel. All cut meniscal slices were immersed in DMEM with 1% P/S culture medium with 4 μM calcein AM and 2 μM ethidium homodimer-1 at room temperature for 2 hours before imaging. In contrast, the TMJ slices underwent staining with distinct dye concentrations: 2 µM calcein AM and 4 μM ethidium homodimer-1, following the same set of conditions. The green-fluorescent calcein indicates living cells by intracellular esterase activity, while the red-fluorescent ethidium homodimer-1 indicates dead cells by loss of plasma membrane integrity. All images were captured using an inverted multiphoton laser scanning microscope. The excitation wavelength was set as 800 nm. Green fluorescence was collected within the 495-540 nm range, and red fluorescence was collected in the 575-630 nm range. Images were taken at a depth of 60 μm below the tissue surface. The whole transverse section images of the whole menisci and the whole sagittal section images of the TMJ disc strips were captured using a 4× objective magnification and stitched together. An interesting view of each region was imaged using a higher objective magnification of 10×. All sagittal section images for meniscal specimens, three primary regions of whole menisci, and five primary regions of whole TMJ discs were captured using a 10× objective magnification for quantitative analysis. Live/dead quantification of 3.5 mm thick specimens was performed within the middle layer image (with a thickness of 1.26 mm) to avoid the count of dead cells on both surfaces associated with manual sectioning. In the context of sagittal sections in each region of the whole meniscus, images were acquired, and cell viability was quantified for the inner, middle, and outer layers. Images of sagittal sections in each region of the TMJ disc were acquired and used for viability quantification. Live/dead quantification was performed using software. Cell viability was defined as the proportion between the count of viable cells and the total cell count (comprising both live and dead cells).

[4] = human articular cartilage, ref [6], cited from earlier work
[5] = 1.4M, tissue-engineered collagen scaffold, 20° C.; ref [7]; cited from earlier work
[6] = alamarBlue metabolic activity of meniscal specimens; format: cell-based, Yorkshire pigs; conditions: 3.5 mm/SF: 3.5 mm specimens slow-frozen in Me2SO (10% v/v), normalized to specimen before treatment
Experimental: (§2) Following the completion of the warming and unloading steps, all tissues were subjected to recovery in DMEM supplemented with 1% P/S (e.g., DMEM/P/S) for one hour within a 37° C. incubator. Subsequently, the alamarBlue assay was conducted to assess the metabolic activity of tissues. This assay employs a water soluble fluorometric viability indicator, relying on the detection of metabolic activity. […] In the case of each meniscal specimen and each TMJ disc, evaluations were carried out both before and after different preservation treatments. For the whole meniscus, each fresh, slow-frozen, or vitrified sample underwent manual sectioning into sagittal sections, each measuring 1-2 mm in thickness, spanning from anterior to posterior horn. Within each region, a minimum of three sections were obtained.
(§3) Either each individual specimen or each section of the whole meniscus was incubated in 1 ml of DMEM/P/S and 100 μl alamarBlue reagent. This process was carried out under standard cell culture conditions for 3 hours. In contrast, each whole TMJ disc was incubated in 5.4 ml of DMEM/P/S and 600 μl alamarBlue reagent under standard cell culture conditions for 4 hours. Subsequently, fluorescence measurements were conducted in duplicate using a multimode microplate reader at an excitation wavelength of 544 nm and an emission wavelength of 590 nm. Following assessment, each sample was rinsed with DMEM/P/S for 30 mins to remove the alamarBlue reagent prior to proceeding with subsequent measurements. The time-course viability from day 0 to day 4 for each sample was assessed. In the case of meniscal specimens and whole TMJ discs, the results (expressed in relative fluorescence unit, RFU) of the slow-frozen and vitrified groups were normalized to the measurements taken from their respective fresh samples before any preservation treatments were applied. For the measurements of the whole meniscus, the results (expressed as RUF/mg of dry weight) from the slow-frozen and vitrified menisci were normalized to the corresponding values of fresh menisci within the same batch. Dry weight values of samples were measured using an analytical balance after being placed in a 60° C. oven over 48 hours subsequent to the completion of the time-course alamarBlue assay.

whole menisci [7] = test: Fluorescence live/dead viability of whole menisci; format: cell-based, Yorkshire pigs; conditions: for Viability (%): whole menisci, SF (slow-frozen in Me2SO 10% v/v)
Experimental: as §1

whole TMJ discs [8] = test: alamarBlue metabolic activity of whole TMJ discs; format: cell-based, Yorkshire pigs; conditions: Slow-frozen (Me2SO 10% v/v)
Experimental: as §2, §3

whole menisci [9] = test: alamarBlue metabolic activity of whole menisci; format: cell-based, Yorkshire pigs
Experimental: as §2, §3

Structure (SMILES): C[S+](C)[O-] [Me2SO, dimethyl sulfoxide]
- D (× 10^−10 m^2/s) ([1]; 4° C.): 2.4 × 10^−10 m^2/s
- D (× 10^−10 m^2/s) ([1]; 22° C.): 3.0 × 10^−10 m^2/s
- D (× 10^−10 m^2/s) ([1]; 37° C.): 4.5 × 10^−10 m^2/s
- D (× 10^−10 m^2/s) [2]: 4.63 ± 0.85 × 10^−10 m^2/s
- Viability (%) (whole TMJ discs [3]; Anterior): 37.4 ± 2.7%
- Viability (%) (whole TMJ discs [3]; Central): 40.1 ± 4.2%
- Viability (%) (whole TMJ discs [3]; Lateral): 39.0 ± 2.7%
- Viability (%) (whole TMJ discs [3]; Medial): 38.3 ± 3.5%
- Viability (%) (whole TMJ discs [3]; Posterior): 37.1 ± 2.2%
- viability (whole TMJ discs [3]; slow-frozen samples (Me2SO 10% v/v)): less than 40%
- D (× 10^−10 m^2/s) ([4]; 1.4M, 4° C.): 6.1 × 10^−10 m^2/s
- D (× 10^−10 m^2/s) ([4]; 1.4M, 27° C.): 14.4 × 10^−10 m^2/s
- D (× 10^−10 m^2/s) ([4]; 14M, 4° C.): 3.1 × 10^−10 m^2/s
- D (× 10^−10 m^2/s) ([4]; 14M, 27° C.): 6.8 × 10^−10 m^2/s
- D (× 10^−10 m^2/s) [5]: 2.4 × 10^−10 m^2/s
- Metabolic activity, Viability (%) ([6]; Day 0 post-warming): 47.0 ± 16.4%
- Metabolic activity, Viability (%) ([6]; Day 1): 43.0 ± 21.0%
- Metabolic activity, Viability (%) ([6]; Day 2): 39.0 ± 19.8%
- Metabolic activity, Viability (%) ([6]; Day 3): 39.5 ± 16.3%
- Metabolic activity, Viability (%) ([6]; Day 4): 52.6 ± 14.5%
- viability in whole menisci, average (whole menisci [7]; slow freezing (Me2SO 10% v/v)): ~21.6%
- Viability (%) (whole menisci [7]; Anterior region): 19.5 ± 9.6%
- Viability (%) (whole menisci [7]; Central region): 23.7 ± 6.4%
- Viability (%) (whole menisci [7]; Inner layer of sagittal sections): 20.3 ± 13.8%
- Viability (%) (whole menisci [7]; Middle layer of sagittal sections): 20.8 ± 8.9%
- Viability (%) (whole menisci [7]; Outer layer of sagittal sections): 24.6 ± 16.9%
- Viability (%) (whole menisci [7]; Posterior region): 21.4 ± 18.2%
- Metabolic activity, Viability (%) (whole TMJ discs [8]; Day 0 post-warming, relative to respective fresh values): 32.0 ± 0.8%
- Metabolic activity, Viability (%) (whole TMJ discs [8]; Day 1, relative to respective fresh values): 33.3 ± 0.5%
- Metabolic activity, Viability (%) (whole TMJ discs [8]; Day 2, relative to respective fresh values): 28.9 ± 0.5%
- Metabolic activity, Viability (%) (whole TMJ discs [8]; Day 3, relative to respective fresh values): 29.1 ± 1.7%
- Metabolic activity, Viability (%) (whole TMJ discs [8]; Day 4, relative to respective fresh values): 28.0 ± 0.6%
- Metabolic activity, Viability (%) (whole menisci [9]; Anterior: SF (slow-frozen in Me2SO 10% v/v), Day 0 post-warming, normalized to fresh menisci day 0): 32.9 ± 11.1%
- Metabolic activity, Viability (%) (whole menisci [9]; Anterior: SF (slow-frozen in Me2SO 10% v/v), Day 1, normalized to fresh menisci day 0): 39.7 ± 10.1%
- Metabolic activity, Viability (%) (whole menisci [9]; Anterior: SF (slow-frozen in Me2SO 10% v/v), Day 2, normalized to fresh menisci day 0): 31.4 ± 7.8%
- Metabolic activity, Viability (%) (whole menisci [9]; Anterior: SF (slow-frozen in Me2SO 10% v/v), Day 3, normalized to fresh menisci day 0): 34.0 ± 6.9%
- Metabolic activity, Viability (%) (whole menisci [9]; Anterior: SF (slow-frozen in Me2SO 10% v/v), Day 4, normalized to fresh menisci day 0): 36.7 ± 7.5%
- Metabolic activity, Viability (%) (whole menisci [9]; Central: SF (slow-frozen in Me2SO 10% v/v), Day 0 post-warming, normalized to fresh menisci day 0): 43.1 ± 13.8%
- Metabolic activity, Viability (%) (whole menisci [9]; Central: SF (slow-frozen in Me2SO 10% v/v), Day 1, normalized to fresh menisci day 0): 55.4 ± 16.8%
- Metabolic activity, Viability (%) (whole menisci [9]; Central: SF (slow-frozen in Me2SO 10% v/v), Day 2, normalized to fresh menisci day 0): 35.1 ± 11.4%
- Metabolic activity, Viability (%) (whole menisci [9]; Central: SF (slow-frozen in Me2SO 10% v/v), Day 3, normalized to fresh menisci day 0): 37.3 ± 9.6%
- Metabolic activity, Viability (%) (whole menisci [9]; Central: SF (slow-frozen in Me2SO 10% v/v), Day 4, normalized to fresh menisci day 0): 35.3 ± 11.4%
- Metabolic activity, Viability (%) (whole menisci [9]; Posterior: SF (slow-frozen in Me2SO 10% v/v), Day 0 post-warming, normalized to fresh menisci day 0): 38.0 ± 9.3%
- Metabolic activity, Viability (%) (whole menisci [9]; Posterior: SF (slow-frozen in Me2SO 10% v/v), Day 1, normalized to fresh menisci day 0): 47.1 ± 7.2%
- Metabolic activity, Viability (%) (whole menisci [9]; Posterior: SF (slow-frozen in Me2SO 10% v/v), Day 2, normalized to fresh menisci day 0): 34.9 ± 7.3%
- Metabolic activity, Viability (%) (whole menisci [9]; Posterior: SF (slow-frozen in Me2SO 10% v/v), Day 3, normalized to fresh menisci day 0): 42.4 ± 7.4%
- Metabolic activity, Viability (%) (whole menisci [9]; Posterior: SF (slow-frozen in Me2SO 10% v/v), Day 4, normalized to fresh menisci day 0): 45.7 ± 13.5%

Structure (SMILES): CC(O)CO (stereo not shown) [PG, propylene glycol]
- D (× 10^−10 m^2/s) ([1]; 4° C.): 0.9 × 10^−10 m^2/s
- D (× 10^−10 m^2/s) ([1]; 22° C.): 1.6 × 10^−10 m^2/s
- D (× 10^−10 m^2/s) ([1]; 37° C.): 2.2 × 10^−10 m^2/s
- D (× 10^−10 m^2/s) [2]: 3.47 ± 0.67 × 10^−10 m^2/s

Structure (SMILES): NC=O [formamide]
- D (× 10^−10 m^2/s) [2]: 6.67 ± 0.70 × 10^−10 m^2/s
